Measured values: ChEMBL document CHEMBL1201862, “PubChem BioAssay data set” (2004)
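Compound exposure: 48 hours, 5 concentrations, 96-well plates. The concentration for 50% growth inhibition is given as GI50.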 Active and inactive are the calls of the source. No stated cut-off is given here; in the data, active = GI50 up to about 1.1 µM and inactive = higher.

Experiments:
Test in all cases: NCI-60 cell line screen, 48 h
SN12C = tested on: SN12C
HL-60 = tested on: HL-60
COLO 205 = tested on: COLO 205
UACC-62 = tested on: UACC-62
HCC 2998 = tested on: HCC 2998
NCI-H226 = tested on: NCI-H226
SF-268 = tested on: SF-268
SK-MEL-2 = tested on: SK-MEL-2
RPMI-8226 = tested on: RPMI-8226
K562 = tested on: K562
OVCAR-3 = tested on: OVCAR-3
CAKI-1 = tested on: CAKI-1
HCT-15 = tested on: HCT-15
KM12 = tested on: KM12
M14 = tested on: M14
SW-620 = tested on: SW-620

`N#CC1CC(c2ccccc2)Nc2cc(Cl)ccc2N1` (centres undefined) was tested, and the GI50 (SN12C) was 63.1 µM (inactive), the GI50 (HL-60) was 4.1 µM (inactive) and the GI50 (COLO 205) was 7.11 µM (inactive). For the same compound, the GI50 (UACC-62) was 31.6 µM (inactive), the GI50 (HCC 2998) was > 100 µM (inactive) and the GI50 (NCI-H226) was > 100 µM (inactive). For the same compound, the GI50 (SF-268) was 45.2 µM (inactive), the GI50 (SK-MEL-2) was 29.1 µM (inactive) and the GI50 (RPMI-8226) was 6.31 µM (inactive). For the same compound, the GI50 (K562) was 9.14 µM (inactive), the GI50 (OVCAR-3) was 19.3 µM (inactive) and the GI50 (CAKI-1) was 34.8 µM (inactive). The GI50 (HCT-15) was 13.8 µM, the GI50 (KM12) was 34.8 µM (inactive) and the GI50 (M14) was 24.3 µM (inactive). For the same compound, the GI50 (SW-620) was 4.5 µM (inactive).

For `C=CCC12CCC(=O)C=C1CCC1(C2)OCCO1` (centres undefined), the GI50 (SN12C) was > 100 µM (inactive), the GI50 (HL-60) was 40.4 µM (inactive) and the GI50 (COLO 205) was > 100 µM (inactive). For the same compound, the GI50 (UACC-62) was > 100 µM (inactive), the GI50 (HCC 2998) was > 100 µM (inactive) and the GI50 (NCI-H226) was > 100 µM (inactive). For the same compound, the GI50 (SF-268) was > 100 µM (inactive), the GI50 (SK-MEL-2) was > 100 µM (inactive) and the GI50 (RPMI-8226) was > 100 µM (inactive). For the same compound, the GI50 (K562) was 55.2 µM (inactive), the GI50 (OVCAR-3) was > 100 µM (inactive) and the GI50 (CAKI-1) was > 100 µM (inactive). The GI50 (HCT-15) was > 100 µM, the GI50 (KM12) was > 100 µM (inactive) and the GI50 (M14) was > 100 µM (inactive). For the same compound, the GI50 (SW-620) was > 100 µM (inactive).

With `CC1=C(C(=O)Nc2cccc(Cl)c2)C(c2ccccc2O)C(C(=O)Nc2cccc(Cl)c2)=C(C)N1` the GI50 (SN12C) was 21.8 µM (inactive), the GI50 (HL-60) was 21 µM (inactive) and the GI50 (COLO 205) was 20 µM (inactive). For the same compound, the GI50 (HCC 2998) was 18.9 µM (inactive), the GI50 (NCI-H226) was 17.7 µM (inactive) and the GI50 (SF-268) was 17.7 µM (inactive). For the same compound, the GI50 (SK-MEL-2) was 16.1 µM (inactive), the GI50 (RPMI-8226) was 20.7 µM (inactive) and the GI50 (K562) was 22.4 µM (inactive). The GI50 (OVCAR-3) was 20.6 µM (inactive), the GI50 (CAKI-1) was 22 µM (inactive) and the GI50 (KM12) was 16.8 µM (inactive). For the same compound, the GI50 (M14) was 17.4 µM (inactive) and the GI50 (SW-620) was 18.6 µM (inactive).

With `CCOP(=O)(OCC)OC(C#N)c1ccc(-c2ccccc2)cc1` (centres undefined) the GI50 (SN12C) was 19 µM (inactive), the GI50 (HL-60) was 18.4 µM (inactive) and the GI50 (COLO 205) was 18.2 µM (inactive). For the same compound, the GI50 (UACC-62) was 13.9 µM (inactive), the GI50 (HCC 2998) was 28.5 µM (inactive) and the GI50 (NCI-H226) was 31.6 µM (inactive). The GI50 (SF-268) was 18.2 µM (inactive), the GI50 (SK-MEL-2) was 36.3 µM (inactive) and the GI50 (RPMI-8226) was 20.7 µM (inactive). The GI50 (K562) was 20.3 µM (inactive), the GI50 (OVCAR-3) was 19.1 µM (inactive) and the GI50 (CAKI-1) was 22.4 µM (inactive). The GI50 (HCT-15) was 18 µM, the GI50 (KM12) was 18.2 µM (inactive) and the GI50 (M14) was 18.4 µM (inactive). For the same compound, the GI50 (SW-620) was 13.7 µM (inactive).

For `CC(C)(C)C(=O)C1CC(=O)c2ccccc2C1=O` (centres undefined), the GI50 (SN12C) was 28.2 µM (inactive), the GI50 (HL-60) was 20.7 µM (inactive) and the GI50 (COLO 205) was 31.8 µM (inactive). For the same compound, the GI50 (UACC-62) was 25.8 µM (inactive), the GI50 (HCC 2998) was 23.4 µM (inactive) and the GI50 (NCI-H226) was 35.2 µM (inactive). The GI50 (SF-268) was 21.8 µM (inactive), the GI50 (SK-MEL-2) was 10.6 µM (inactive) and the GI50 (RPMI-8226) was 23 µM (inactive). The GI50 (K562) was 40.6 µM (inactive), the GI50 (OVCAR-3) was 24.3 µM (inactive) and the GI50 (CAKI-1) was 39.6 µM (inactive). The GI50 (KM12) was 31.8 µM (inactive), the GI50 (M14) was 39.3 µM (inactive) and the GI50 (SW-620) was 32.4 µM (inactive).

For `NN1C(=O)C(CCO)S/C1=N/N=C1/SC(CCO)C(=O)N1N` (centres undefined), the GI50 (SN12C) was > 100 µM (inactive), the GI50 (HL-60) was > 100 µM (inactive) and the GI50 (COLO 205) was > 100 µM (inactive). The GI50 (UACC-62) was > 100 µM (inactive), the GI50 (HCC 2998) was > 100 µM (inactive) and the GI50 (NCI-H226) was > 100 µM (inactive). The GI50 (SF-268) was > 100 µM (inactive), the GI50 (SK-MEL-2) was > 100 µM (inactive) and the GI50 (RPMI-8226) was > 100 µM (inactive). The GI50 (K562) was > 100 µM (inactive), the GI50 (OVCAR-3) was > 100 µM (inactive) and the GI50 (CAKI-1) was > 100 µM (inactive). For the same compound, the GI50 (HCT-15) was > 100 µM, the GI50 (KM12) was > 100 µM (inactive) and the GI50 (M14) was > 100 µM (inactive). The GI50 (SW-620) was > 100 µM (inactive).

With `O=c1cccccc1NCCCCCCCCCNc1cccccc1=O` the GI50 (SN12C) was 21 µM (inactive), the GI50 (HL-60) was 4.06 µM (inactive) and the GI50 (COLO 205) was 3.23 µM (inactive). The GI50 (UACC-62) was 12.5 µM (inactive), the GI50 (HCC 2998) was 13.3 µM (inactive) and the GI50 (NCI-H226) was 15.7 µM (inactive). For the same compound, the GI50 (SF-268) was 14.1 µM (inactive), the GI50 (SK-MEL-2) was 19 µM (inactive) and the GI50 (RPMI-8226) was 4.4 µM (inactive). For the same compound, the GI50 (K562) was 3.35 µM (inactive), the GI50 (OVCAR-3) was 9.06 µM (inactive) and the GI50 (CAKI-1) was 13.3 µM (inactive). The GI50 (HCT-15) was 12.2 µM, the GI50 (KM12) was 16.1 µM (inactive) and the GI50 (M14) was 10.9 µM (inactive). The GI50 (SW-620) was 18.6 µM (inactive).
